Results published in PMC6375640, “Genomic insights into neonicotinoid sensitivity in the solitary bee Osmia bicornis” (PLoS Genetics, 2019).
In brackets after ≈: the same amount, converted by molar mass.

Key:
[1] = test system: O. bicornis cuticle; experiment: Cuticular penetration of radiolabelled insecticide (pharmacokinetic study); type: in vivo, Osmia bicornis; conditions: 24 h after application to dorsal thorax
Method: Bees were anaesthetised with CO2 for 5–10 seconds to allow application of insecticide. 5,000 ppm of [^14C]imidacloprid or [^14C]thiacloprid was applied to the dorsal thorax of each bee using a Hamilton repeating dispenser. Three replicates of five bees were placed into cages and fed a 50% sucrose solution from vertically hanging 2 ml syringes. Control bees were treated with acetone. Radiolabelled insecticide was rinsed off of each group of bees at set time intervals (0, 2, 4 and 24 hours after application) with acetonitrile water (90:10) three times. The […] bees were then individually combusted at 900°C in an Ox 120c oxidizer (Harvey Instruments Co., USA) followed by liquid scintillation counting of the released ^14CO2 in an alkaline scintillation cocktail (Ultima Gold, PerkinElmer) using a liquid scintillation analyser (Perkin Elmer Tri-Carb 2910 TR). The levels of excreted [^14C]imidacloprid or [^14C]thiacloprid, and/or metabolites, were measured by wiping cages with filter papers dipped in acetone and 0.5 mL aliquots of cuticular rinse or filter papers were added to 3 mL of scintillation fluid cocktail and the radioactivity was quantified by liquid scintillation analysis as above. An unpaired t-test was used to compare the penetration of the two compounds at each time point.

[2] = test system: O. bicornis; experiment: Sublethal dose (LD10) used for oral exposure; type: in vivo, Osmia bicornis; conditions: used as sublethal dose, supplied orally in 50% sucrose
Method: To examine if P450 expression in O. bicornis is induced by exposure to sublethal concentrations of neonicotinoids, imidacloprid and thiacloprid were dissolved in acetone to the highest concentration possible, before being diluted to the LD10 of imidacloprid (0.0001 μg/bee) and thiacloprid (0.01 μg/bee) with 50% sucrose (w/v) in order to limit the amount of acetone consumed by bees. Prior to commencing oral bioassays bees underwent a 24 hour ‘training’ period in the Nicot cages to enable them to learn to feed from the syringes. This was followed by a 16h starvation period to encourage subsequent feeding. 15μL of the insecticide/sucrose solution was supplied orally to the bees in disposable plastic syringes. Control bees were fed 15μL of a sucrose solution containing the same volume of acetone used to make up the insecticide/sucrose solutions. When all of the solution had been consumed the bees were fed ab libitum with a 50% sucrose solution for 24 h. After this period for each condition four replicates comprising 5 bees per replicate were snap frozen in liquid nitrogen and RNA extracted from each replicate as above. RNA was used as a template for the generation of barcoded libraries (TrueSeq RNA library preparation, Illumina) which were sequenced across two lanes of an Illumina HiSeq2500 flowcell (100 bp paired end reads). Sequencing was carried out by Earlham Institute, Norwich, UK. […]

[3] = test system: Drosophila melanogaster control line; experiment: in vivo; conditions: for RR (resistance ratio): Control strain (reference); for Slope (+/- SE): log-dose probit mortality, Control strain
Method: (§1) CYP9BU1 and CYP9BU2 were codon optimised for D. melanogaster expression and cloned into the pUASTattB plasmid (GenBank: EF362409.1). These constructs were used to create transgenic fly lines, which were then tested in insecticide bioassays against imidacloprid and thiacloprid, as described previously.

[4] = in vivo; conditions: in vivo; Control strain
Method: as §1

[5] = target: O. bicornis nAChRs; experiment: Radioligand competition binding, [3H]imidacloprid displacement from head membrane preparations; design: species or system Osmia bicornis; conditions: 576 pM radioligand, 60 min room temperature
Method: [^3H]imidacloprid (specific activity 1.406 GBq μmol^−1) displacement studies were conducted using membrane preparations isolated from frozen (−80°C) O. bicornis heads, following previously published protocols. Briefly, bee heads weighing 10 g were homogenized in 200 ml ice-cold 0.1 M potassium phosphate buffer, pH 7.4 containing 95 mM sucrose using a motor-driven Ultra Turrax blender. […] Assays were performed in a 96-well microtitre plate with bonded GF/C filter membrane (Packard UniFilter-96, GF/C) and consisted of 200 μl of homogenate (0.48 mg protein), 25 μl of [^3H]imidacloprid (576 pM) and 25 μl of competing ligand. Ligand concentrations used ranged from 0.001 to 10 000 nM and were tested in triplicate per competition assay. The assay was started by the addition of homogenate and incubated for 60 min at room temperature. Bound [^3H]imidacloprid was quantified by filtration into a second 96-well filter plate (conditioned with ice-cold 100 mM potassium phosphate buffer, pH 7.4 (including BSA 5 g litre−1)) using a commercial cell harvester (Brandel). […] Each well was then loaded with 25 μl of scintillation cocktail (Microszint-O-Filtercount, Packard) and the plate counted in a Topcount scintillation counter (Packard). Non-specific binding was determined using a final concentration of 10 μM unlabelled imidacloprid. […]

[6] = test system: O. bicornis; experiment: PBO (piperonyl butoxide) synergist bioassay; type: in vivo, Osmia bicornis; conditions: with vs without PBO pre-treatment one hour before insecticide
Method: (§2) Acute contact toxicity bioassays on unmated 2 day old female O. bicornis were conducted following the OECD Honey Bee Test guidelines, with modification where necessary. Bees were anaesthetised with CO2 for 5–10 seconds to allow application of insecticide. 1 μL of technical grade imidacloprid was applied to the dorsal thorax of each bee at concentrations of 0.0001, 0.001, 0.01, 0.1, 1, and 10 μg/μL. No mortality was observed using the same concentrations of thiacloprid so a limit test of 100 μg/bee was performed. Control bees were treated with 1 μL 100% acetone. Three replicates of 10 bees were tested for each concentration. Tested individuals were placed back into cages in the incubator (25°C, 55% RH, L16:D8), with five bees per cage. In piperonyl butoxide (PBO) synergist bioassays, bees were first treated with the maximum sublethal dose (in this case 100 μg/μL) of PBO followed by insecticide one hour later. Synergist bioassays included an additional control group treated only with PBO. Mortality was assessed 48 and 72 hours after application. Probit analysis was used to calculate the LD50 values, slope, and synergism ratio (where relevant) for each insecticide (Genstat v.18 (VSNI 2015)).

[7] = test system: CYP9BU1; experiment: Insecticide bioassay on transgenic flies expressing CYP9BU1; type: in vivo, Drosophila melanogaster; conditions: transgenic line expressing CYP9BU1, Drosophila melanogaster, in vivo; CYP9BU1 strain
Method: as §1

[8] = test system: transgenic Drosophila melanogaster expressing CYP9BU1; experiment: as above; type: in vivo; conditions: for RR (resistance ratio): CYP9BU1 strain vs control line; for sensitivity relative to control flies (less sensitive): flies expressing CYP9BU1 vs control flies without transgene
Method: as §1

[9] = test system: CYP9BU2; experiment: Metabolism assay with recombinant P450/CPR microsomes, UPLC-MS/MS; conditions: for metabolism to 5-hydroxy form: 25 μM insecticide, 5 pmol P450, NADPH, 1 hour, 30°C
Description: (§3) O. bicornis P450 genes and house fly NADPH-dependent cytochrome P450 reductase (CPR) (GenBank accession no. Q07994) genes were codon optimised for expression in lepidopteran cell lines, synthesized (Geneart, CA, USA) and inserted into the pDEST8 expression vector (Invitrogen). The PFastbac1 vector with no inserted DNA was used to produce a control virus. The recombinant baculovirus DNA was constructed and transfected into Trichoplusia ni (High five cells, Thermo Fisher) using the Bac-to-Bac baculovirus expression system (Invitrogen) according to the manufacturer’s instructions. The titre of the recombinant virus was determined following protocols of the supplier. High Five cells grown to a density of 2 x 10^6 cells ml^-1 were co-infected with recombinant baculoviruses containing each bee P450 and CPR with a range of MOI (multiplicity of infection) ratios to identify the optimal conditions. Control cells were co-infected with the baculovirus containing vector with no insert (ctrl-virus) and the recombinant baculovirus expressing CPR using the same MOI ratios. Ferric citrate and δ-aminolevulinic acid hydrochloride were added to a final concentration of 0.1 mM at the time of infection and 24 h after infection to compensate the low levels of endogenous heme in the insect cells. After 48 h, cells were harvested, washed with PBS, and microsomes of the membrane fraction prepared according to standard procedures and stored at −80°C [41]. Briefly, pellets were homogenised for 30 s in 0.1 M Na/K-phosphate buffer, pH 7.4 containing 1 mM EDTA and DTT and 200 mM sucrose using a Fastprep (MP Biomedicals), filtered through miracloth and centrifuged for 10 min at 680g at 4°C. The supernatant was then centrifuged for 1 h at 100,000g at 4°C, with the pellet subsequently resuspended in 0.1M Na/K-phosphate buffer pH 7.6 containing 1 mM EDTA and DTT and 10% glycerol using a Dounce tissue grinder. P450 expression and functionality was estimated by measuring CO-difference spectra in reduced samples using a Specord 200 Plus Spectrophotometer (Analytik Jena) and scanning from 500 nm to 400 nm. The protein content of samples was determined using Bradford reagent (Sigma) and bovine serum albumin (BSA) as a reference.
(§4) Metabolism of thiacloprid and imidacloprid was assessed by incubating recombinant P450/CPR (5 pmol/well) or control virus/CPR (5 pmol/well) with each insecticide (25 μM) in the presence of an NADPH regeneration system at 30±1°C, shaking, for 1 hour. […] The peak integrals were calibrated externally against a standard calibration curve.

[10] = test system: CYP9BU1; experiment: as above; conditions: for metabolism to 5-hydroxy form: 25 μM insecticide, 5 pmol P450, NADPH, 1 hour, 30°C
Description: as §3, §4

[11] = test system: adult female O. bicornis gene expression; experiment: RNAseq of bees after sublethal oral neonicotinoid exposure (P450 induction); type: in vivo, Osmia bicornis; conditions: for induction of P450 expression: 24 h after exposure to LD10; for number of genes significantly upregulated: 24 h after exposure to LD10, corrected p <0.05 vs solvent control
Method: To examine if P450 expression in O. bicornis is induced by exposure to sublethal concentrations of neonicotinoids, imidacloprid and thiacloprid were dissolved in acetone to the highest concentration possible, before being diluted to the LD10 of imidacloprid (0.0001 μg/bee) and thiacloprid (0.01 μg/bee) with 50% sucrose (w/v) in order to limit the amount of acetone consumed by bees. Prior to commencing oral bioassays bees underwent a 24 hour ‘training’ period in the Nicot cages to enable them to learn to feed from the syringes. This was followed by a 16h starvation period to encourage subsequent feeding. 15μL of the insecticide/sucrose solution was supplied orally to the bees in disposable plastic syringes. Control bees were fed 15μL of a sucrose solution containing the same volume of acetone used to make up the insecticide/sucrose solutions. When all of the solution had been consumed the bees were fed ab libitum with a 50% sucrose solution for 24 h. After this period for each condition four replicates comprising 5 bees per replicate were snap frozen in liquid nitrogen and RNA extracted from each replicate as above. RNA was used as a template for the generation of barcoded libraries (TrueSeq RNA library preparation, Illumina) which were sequenced across two lanes of an Illumina HiSeq2500 flowcell (100 bp paired end reads). Sequencing was carried out by Earlham Institute, Norwich, UK. To identify genes differentially expressed between control and the treatment the Tuxedo workflow was used to map with TopHat against the annotated reference genome, to estimate gene expression with Cufflinks and test for differential expression with Cuffdiff.

[12] = test system: O. bicornis; experiment: Acute contact toxicity bioassay; type: in vivo, Osmia bicornis; conditions: for LD50: acute contact, applied to dorsal thorax, thiacloprid limit test 100 μg/bee; for toxicity classification according to U.S. EPA categories: contact exposure
Method: O. bicornis cocoons were purchased from Dr Schubert Plant Breeding (Landsberg, Germany) and stored at 4°C in constant darkness. To trigger emergence cocoons were transferred to an incubator (25°C, 55% RH, L16:D8) with emerged bees fed ab libitum with Biogluc (62% sugar concentration consisting of 37.5% fructose, 34.5% glucose, 25% sucrose, 2% maltose, and 1% oligosaccharides) (Biobest), soaked into a piece of cotton wool inside a plastic dish. Males (which are usually first to emerge) were removed from cages and discarded to reduce any unnecessary stress to the females used in insecticide bioassays.
as §2

[13] = test system: CYP9BU2; experiment: Insecticide bioassay on transgenic flies expressing CYP9BU2; type: in vivo, Drosophila melanogaster; conditions: transgenic line expressing CYP9BU2, Drosophila melanogaster, in vivo; CYP9BU2 strain
Method: as §1

[14] = test system: transgenic Drosophila melanogaster expressing CYP9BU2; experiment: as above; type: in vivo; conditions: for RR (resistance ratio): CYP9BU2 strain vs control line; for sensitivity relative to control flies: flies expressing CYP9BU2 vs control flies without transgene
Method: as §1

[15] = production of hydroxy metabolite per pmol P450

SMILES	final uptake through the cuticle [1]	LD10 [2]	RR (resistance ratio) [3]	Slope (+/- SE) [3]	LC50 [4]	IC50 [5]	change in sensitivity after PBO pre-treatment [6]	LC50 [7]	RR (resistance ratio) [8]	sensitivity relative to control flies (less sensitive) [8]	metabolism to 5-hydroxy form [9]	metabolism to 5-hydroxy form [10]	induction of P450 expression [11]	number of genes significantly upregulated [11]	LD50 ([12]; adult female bees)	toxicity classification according to U.S. EPA categories [12]	LC50 [13]	RR (resistance ratio) [14]	sensitivity relative to control flies [14]	also measured
N#C/N=C1\SCCN1Cc1ccc(Cl)nc1 [thiacloprid]	28%	0.01 μg/bee	1	1.2 +/- 0.14	17 µg/mL (≈ 67.4 µM)	2.4 nM	> 7 fold	65.7 µg/mL (≈ 260 µM)	3.8	~ 4 times	metabolise these compounds to their hydroxylated forms	metabolise these compounds to their hydroxylated forms	no P450 showed a significant increase in expression	16 genes	> 100 μg/bee	practically non-toxic	17.5 µg/mL (≈ 69.2 µM)	1.1	no significant resistance	efficiency of metabolism relative to imidacloprid [9, 15]: significantly greater efficiency than imidacloprid; efficiency of metabolism relative to imidacloprid [10, 15]: significantly greater efficiency than imidacloprid; mortality ([12]; 1 μL at 0.0001-10 μg/μL, contact): No mortality
O=[N+]([O-])NC1=NCCN1Cc1ccc(Cl)nc1 [imidacloprid]	27%	0.0001 μg/bee	1	1.7 +/- 0.12	165 µg/mL (≈ 645 µM)	8.3 nM	No significant difference	85.9 µg/mL (≈ 336 µM)	0.5	no significant differences in sensitivity	metabolise these compounds to their hydroxylated forms	metabolise these compounds to their hydroxylated forms	no P450 showed a significant increase in expression	27 genes	0.046 μg/bee	highly toxic	135 µg/mL (≈ 530 µM)	0.8	no significant differences in sensitivity	Slope (+/- SE) ([8]; log-dose probit mortality, CYP9BU1 strain): 1.3 +/- 0.13; fold more sensitive to imidacloprid than thiacloprid ([12]; adult female bees, ratio of contact LD50): > 2,000 fold; Slope (+/- SE) ([14]; log-dose probit mortality, CYP9BU2 strain): 1.5 +/- 0.14
